Where a SMILES comes first, the peptide text is derived from it. [ ]: non-standard residue; d: D form. The star is where a group is joined. NHCH2CH2OH = OCCN*; For = O=C*
Key:
[1] = H+/Na+ transport assay of bead-derived peptides (one-point); assay type: biochemical; parameters: key: relative activity; mean of two control wells = 1.00; conditions: bead-derived peptide solution, EYPC/EYPG LUVs;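 note: relative to parent gramicidin A activity set to 1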
Summary of the method: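 Miniaturized 96-well format. LUVs with entrapped pyranine (1.0 mM) were exposed to peptide for 30 min at RT. Intensities were expressed relative to full lysis by Triton X-100 and no treatment, with control-well mean = 1.00.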

[2] = cell viability/%
Summary of the method: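 P388 cells at 1 × 10^4 cells/mL (final) were exposed to library peptides (stocks diluted 250-fold in RPMI1640/10% FBS) for 92 h at 37 °C, 5% CO2. Viable cells were counted by WST-1/1-methoxy PMS (4 h), absorbance 415 nm, and expressed as cell viability (%).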

[3] = system: Streptococcus pyogenes SSI-9; experiment: Antibacterial activity assay of bead-derived peptides (three concentrations); assay type: cell-based; parameters: key: +++: inhibition by the 640-fold diluted peptide solution; ++: inhibition by the 160-fold diluted solution; +: inhibition by the 40-fold diluted solution; -: no inhibition; conditions: S. pyogenes, bead-derived peptide solution, three concentrations
Summary of the method: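 Undiluted, 4-fold and 16-fold DMSO-diluted peptide stocks; S. pyogenes SSI-9, 2 × 10^5 CFU, cation-adjusted MHB (50 mg/L Ca2+, 25 mg/L Mg2+) + 5% laked horse blood; 37 °C, 18 h; readout = cell pellet visible or not.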

Compound | H+/Na+ transport activity normalized against the value of 1 (1.00) [1] | viability [2] [%] | antibacterial activity [3]
CC(C)C[C@@H](NC(=O)[C@H](C)NC(=O)CNC(=O)[C@@H](NC=O)C(C)C)C(=O)N[C@@H](C)C(=O)N[C@H](CC(C)C)C(=O)N[C@H](C(=O)N[C@H](CC(C)C)C(=O)N[C@@H](Cc1c[nH]c2ccccc12)C(=O)N[C@@H](C(=O)N[C@@H](Cc1c[nH]c2ccccc12)C(=O)N[C@@H](C(=O)N[C@@H](Cc1c[nH]c2ccccc12)C(=O)N[C@H](CC(C)C)C(=O)N[C@@H](Cc1c[nH]c2ccccc12)C(=O)NCCO)[C@H](C)O)C(C)C)C(C)C [compound 5736] (For-VGA[dL]A[dL]V[dL]W[dV]W[dT]W[dL]W-NHCH2CH2OH) | 1.11 | 95.5 | -
CC(C)C[C@@H](NC(=O)[C@H](C)NC(=O)CNC(=O)[C@@H](NC=O)C(C)C)C(=O)N[C@@H](C)C(=O)N[C@@H](C(=O)N[C@H](C(=O)N[C@@H](C(=O)N[C@@H](Cc1c[nH]c2ccccc12)C(=O)N[C@@H](C(=O)N[C@@H](Cc1c[nH]c2ccccc12)C(=O)N[C@@H](C(=O)N[C@@H](Cc1c[nH]c2ccccc12)C(=O)N[C@@H](C(=O)N[C@@H](Cc1c[nH]c2ccccc12)C(=O)NCCO)C(C)C)C(C)C)C(C)C)C(C)C)C(C)C)C(C)C [compound 725] (For-VGA[dL]A[dV]V[dV]W[dV]W[dV]W[dV]W-NHCH2CH2OH) | 1.10 | 100 | +
CC(C)C[C@@H](NC(=O)[C@H](C)NC(=O)CNC(=O)[C@@H](NC=O)C(C)C)C(=O)N[C@@H](C)C(=O)N[C@H](CC(C)C)C(=O)N[C@H](C(=O)N[C@@H](C(=O)N[C@@H](Cc1c[nH]c2ccccc12)C(=O)N[C@@H](C(=O)N[C@@H](Cc1c[nH]c2ccccc12)C(=O)N[C@H](CC(C)C)C(=O)N[C@@H](Cc1c[nH]c2ccccc12)C(=O)N[C@H](CC(C)C)C(=O)N[C@@H](Cc1c[nH]c2ccccc12)C(=O)NCCO)C(C)C)[C@H](C)O)C(C)C [compound 1631] (For-VGA[dL]A[dL]V[dT]W[dV]W[dL]W[dL]W-NHCH2CH2OH) | 1.04 | 100 | -
CNC(=O)C[C@@H](NC(=O)[C@H](C)NC(=O)[C@H](NC(=O)[C@H](C)NC(=O)CNC(=O)[C@@H](NC=O)C(C)C)C(C)C)C(=O)N[C@H](C(=O)N[C@@H](C(=O)N[C@@H](Cc1c[nH]c2ccccc12)C(=O)N[C@H](CC(C)C)C(=O)N[C@@H](Cc1c[nH]c2ccccc12)C(=O)N[C@@H](C(=O)N[C@@H](Cc1c[nH]c2ccccc12)C(=O)N[C@H](CC(C)C)C(=O)N[C@@H](Cc1c[nH]c2ccccc12)C(=O)NCCO)C(C)C)C(C)C)C(C)C [compound 12938] (For-VGA[dV]A[dD](NHMe)V[dV]W[dL]W[dV]W[dL]W-NHCH2CH2OH) | 1.07 | 100 | -
CNC(=O)C[C@@H](NC(=O)[C@H](Cc1c[nH]c2ccccc12)NC(=O)[C@H](NC(=O)[C@H](Cc1c[nH]c2ccccc12)NC(=O)[C@@H](CC(C)C)NC(=O)[C@H](Cc1c[nH]c2ccccc12)NC(=O)[C@H](NC(=O)[C@@H](NC(=O)[C@@H](CC(C)C)NC(=O)[C@H](C)NC(=O)[C@@H](CC(C)C)NC(=O)[C@H](C)NC(=O)CNC(=O)[C@@H](NC=O)C(C)C)C(C)C)C(C)C)C(C)C)C(=O)N[C@@H](Cc1c[nH]c2ccccc12)C(=O)NCCO [compound 8516] (For-VGA[dL]A[dL]V[dV]W[dL]W[dV]W[dD](NHMe)W-NHCH2CH2OH) | 1.09 | 48.7 | -
CC(C)C[C@@H](NC(=O)[C@H](Cc1c[nH]c2ccccc12)NC(=O)[C@H](NC(=O)[C@H](Cc1c[nH]c2ccccc12)NC(=O)[C@@H](CC(C)C)NC(=O)[C@H](Cc1c[nH]c2ccccc12)NC(=O)[C@@H](CC(C)C)NC(=O)[C@@H](NC(=O)[C@H](NC(=O)[C@H](C)NC(=O)[C@H](NC(=O)[C@H](C)NC(=O)CNC(=O)[C@@H](NC=O)C(C)C)C(C)C)[C@H](C)O)C(C)C)C(C)C)C(=O)N[C@@H](Cc1c[nH]c2ccccc12)C(=O)NCCO [compound 10686] (For-VGA[dV]A[dT]V[dL]W[dL]W[dV]W[dL]W-NHCH2CH2OH) | 1.05 | 100 | -
CC(C)C[C@@H](NC(=O)[C@H](C)NC(=O)CNC(=O)[C@@H](NC=O)C(C)C)C(=O)N[C@@H](C)C(=O)N[C@H](CC(C)C)C(=O)N[C@H](C(=O)N[C@@H](C(=O)N[C@@H](Cc1c[nH]c2ccccc12)C(=O)N[C@H](CC(C)C)C(=O)N[C@@H](Cc1c[nH]c2ccccc12)C(=O)N[C@@H](C(=O)N[C@@H](Cc1c[nH]c2ccccc12)C(=O)N[C@H](CC(C)C)C(=O)N[C@@H](Cc1c[nH]c2ccccc12)C(=O)NCCO)C(C)C)C(C)C)C(C)C [compound 11305] (For-VGA[dL]A[dL]V[dV]W[dL]W[dV]W[dL]W-NHCH2CH2OH) | 1.26 | 15.5 | +
CNC(=O)C[C@@H](NC(=O)[C@@H](NC(=O)[C@@H](CC(C)C)NC(=O)[C@H](C)NC(=O)[C@@H](CC(C)C)NC(=O)[C@H](C)NC(=O)CNC(=O)[C@@H](NC=O)C(C)C)C(C)C)C(=O)N[C@@H](Cc1c[nH]c2ccccc12)C(=O)N[C@@H](C(=O)N[C@@H](Cc1c[nH]c2ccccc12)C(=O)N[C@H](CC(C)C)C(=O)N[C@@H](Cc1c[nH]c2ccccc12)C(=O)N[C@H](CC(C)C)C(=O)N[C@@H](Cc1c[nH]c2ccccc12)C(=O)NCCO)C(C)C [compound 2978] (For-VGA[dL]A[dL]V[dD](NHMe)W[dV]W[dL]W[dL]W-NHCH2CH2OH) | 1.18 | 100 | -
CC(C)C[C@@H](NC(=O)[C@H](C)NC(=O)CNC(=O)[C@@H](NC=O)C(C)C)C(=O)N[C@@H](C)C(=O)N[C@H](CC(C)C)C(=O)N[C@H](C(=O)N[C@@H](C(=O)N[C@@H](Cc1c[nH]c2ccccc12)C(=O)N[C@@H](C(=O)N[C@@H](Cc1c[nH]c2ccccc12)C(=O)N[C@H](CC(C)C)C(=O)N[C@@H](Cc1c[nH]c2ccccc12)C(=O)N[C@@H](C(=O)N[C@@H](Cc1c[nH]c2ccccc12)C(=O)NCCO)C(C)C)C(C)C)[C@H](C)O)C(C)C [compound 8043] (For-VGA[dL]A[dL]V[dT]W[dV]W[dL]W[dV]W-NHCH2CH2OH) | 1.04 | 100 | -
CNC(=O)C[C@@H](NC(=O)[C@H](Cc1c[nH]c2ccccc12)NC(=O)[C@H](NC(=O)[C@H](Cc1c[nH]c2ccccc12)NC(=O)[C@H](NC(=O)[C@H](Cc1c[nH]c2ccccc12)NC(=O)[C@H](NC(=O)[C@@H](NC(=O)[C@@H](CC(C)C)NC(=O)[C@H](C)NC(=O)[C@H](NC(=O)[C@H](C)NC(=O)CNC(=O)[C@@H](NC=O)C(C)C)C(C)C)C(C)C)C(C)C)C(C)C)C(C)C)C(=O)N[C@@H](Cc1c[nH]c2ccccc12)C(=O)NCCO [compound 2911] (For-VGA[dV]A[dL]V[dV]W[dV]W[dV]W[dD](NHMe)W-NHCH2CH2OH) | 1.16 | 100 | -
CC(C)C[C@@H](NC(=O)[C@H](Cc1c[nH]c2ccccc12)NC(=O)[C@@H](CC(C)C)NC(=O)[C@H](Cc1c[nH]c2ccccc12)NC(=O)[C@H](NC(=O)[C@H](Cc1c[nH]c2ccccc12)NC(=O)[C@H](NC(=O)[C@@H](NC(=O)[C@H](NC(=O)[C@H](C)NC(=O)[C@H](NC(=O)[C@H](C)NC(=O)CNC(=O)[C@@H](NC=O)C(C)C)[C@H](C)O)C(C)C)C(C)C)C(C)C)[C@H](C)O)C(=O)N[C@@H](Cc1c[nH]c2ccccc12)C(=O)NCCO [compound 3226] (For-VGA[dT]A[dV]V[dV]W[dT]W[dL]W[dL]W-NHCH2CH2OH) | 1.06 | 87.6 | -
CC(C)C[C@@H](NC(=O)[C@H](Cc1c[nH]c2ccccc12)NC(=O)[C@@H](CC(C)C)NC(=O)[C@H](Cc1c[nH]c2ccccc12)NC(=O)[C@H](NC(=O)[C@H](Cc1c[nH]c2ccccc12)NC(=O)[C@@H](CC(C)C)NC(=O)[C@@H](NC(=O)[C@H](NC(=O)[C@H](C)NC(=O)[C@H](NC(=O)[C@H](C)NC(=O)CNC(=O)[C@@H](NC=O)C(C)C)C(C)C)[C@H](C)O)C(C)C)C(C)C)C(=O)N[C@@H](Cc1c[nH]c2ccccc12)C(=O)NCCO [compound 2085] (For-VGA[dV]A[dT]V[dL]W[dV]W[dL]W[dL]W-NHCH2CH2OH) | 1.20 | 100 | -
CC(C)C[C@@H](NC(=O)[C@H](C)NC(=O)[C@H](NC(=O)[C@H](C)NC(=O)CNC(=O)[C@@H](NC=O)C(C)C)C(C)C)C(=O)N[C@H](C(=O)N[C@H](CC(C)C)C(=O)N[C@@H](Cc1c[nH]c2ccccc12)C(=O)N[C@H](CC(C)C)C(=O)N[C@@H](Cc1c[nH]c2ccccc12)C(=O)N[C@@H](C(=O)N[C@@H](Cc1c[nH]c2ccccc12)C(=O)N[C@@H](C(=O)N[C@@H](Cc1c[nH]c2ccccc12)C(=O)NCCO)[C@H](C)O)C(C)C)C(C)C [compound 3828] (For-VGA[dV]A[dL]V[dL]W[dL]W[dV]W[dT]W-NHCH2CH2OH) | 1.02 | 95.2 | +

— paper PMC7531004, “Discovery of gramicidin A analogues with altered activities by multidimensional screening of a one-bead-one-compound library” (Nature Communications, 2020)
